Results from US20260217735A1, “HETEROCYCLES AND USES THEREOF” (Kumquat Biosciences Inc., priority 2023, published 2026).

Key:
KRAS G12V = molecular target: T1, KRAS G12V (Homo sapiens, UniProt P01116, G12V); experiment: HTRF assay, KRAS G12V interaction with SOS1; format: biochemical; settings: bins <500 nM / 500 nM to 1000 nM, read-out: Inhibition of KRAS G12V (IC50)
T1 construct: made in house; host or cells: E. coli, e.g. BL21 (DE3)

MiaPaca2 cells = experiment: Ras cellular assay, growth of cells with K-Ras G12C mutation; format: cell-based; settings: Homo sapiens, MIA PaCa-2; cell proliferation assay; bins ≤500 nM / >500 nM; read-out: Inhibition of MiaPaca2 Cells (IC50)
Summary of the method: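 MIA PaCa-2 cells (K-Ras G12C, about 125-150 cells/well) grown in 0.25% soft agar over a 0.6% agar base, compound added on day 2 at 0.3% final DMSO. Growth read on day 10 by Cell Titer 96 AQueous absorbance (490 nm, reference 660 nm) against time-zero wells; IC50 from four-parameter fit.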

KRAS WT = molecular target: T2, KRAS WT (Homo sapiens, UniProt P01116); experiment: HTRF assay, wildtype KRAS interaction with SOS1; format: biochemical; settings: bins <500 nM / 500 nM to 1000 nM, read-out: Inhibition of KRAS WT (IC50)
T2 construct: made in house; host or cells: E. coli, e.g. BL21 (DE3)

KRAS G12S = molecular target: T3, KRAS G12S (Homo sapiens, UniProt P01116, G12S); experiment: HTRF assay, KRAS G12S interaction with SOS1; format: biochemical; settings: bins <500 nM / 500 nM to 1000 nM, read-out: Inhibition of KRAS G12S (IC50)
T3 construct: made in house; host or cells: E. coli, e.g. BL21 (DE3)

KRAS G12D = molecular target: T4, KRAS G12D (Homo sapiens, UniProt P01116, G12D); experiment: HTRF assay, KRAS G12D interaction with SOS1; format: biochemical; settings: bins <500 nM / 500 nM to 1000 nM, read-out: Inhibition of KRAS G12D (IC50)
T4 construct: made in house; host or cells: E. coli, e.g. BL21 (DE3)
T4 sequence (P01116 1-188 isoform P01116-2 G12D): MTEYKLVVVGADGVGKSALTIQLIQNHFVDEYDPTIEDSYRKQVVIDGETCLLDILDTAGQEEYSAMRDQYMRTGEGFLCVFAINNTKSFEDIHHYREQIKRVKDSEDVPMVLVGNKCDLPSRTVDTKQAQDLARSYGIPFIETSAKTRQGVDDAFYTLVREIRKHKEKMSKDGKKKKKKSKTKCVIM

T1 sequence (P01116 1-188 isoform P01116-2 G12V): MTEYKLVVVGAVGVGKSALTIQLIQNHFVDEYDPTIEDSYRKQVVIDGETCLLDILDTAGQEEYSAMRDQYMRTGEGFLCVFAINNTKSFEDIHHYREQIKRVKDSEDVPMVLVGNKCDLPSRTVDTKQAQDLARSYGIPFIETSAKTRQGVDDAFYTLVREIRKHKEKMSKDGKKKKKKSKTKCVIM
T2 sequence (P01116 1-188 isoform P01116-2): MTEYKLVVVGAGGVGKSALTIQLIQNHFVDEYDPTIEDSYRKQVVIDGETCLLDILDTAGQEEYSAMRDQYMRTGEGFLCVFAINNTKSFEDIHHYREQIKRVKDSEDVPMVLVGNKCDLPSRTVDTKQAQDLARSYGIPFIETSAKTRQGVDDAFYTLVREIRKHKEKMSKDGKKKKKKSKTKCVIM
T3 sequence (P01116 1-188 isoform P01116-2 G12S): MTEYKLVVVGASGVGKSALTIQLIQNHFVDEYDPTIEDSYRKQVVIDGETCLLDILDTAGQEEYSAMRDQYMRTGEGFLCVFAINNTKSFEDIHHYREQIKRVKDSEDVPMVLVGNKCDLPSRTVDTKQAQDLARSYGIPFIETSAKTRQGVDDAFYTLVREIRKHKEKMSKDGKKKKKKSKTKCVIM

| SMILES | IC50 (KRAS G12V) | IC50 (MiaPaca2 cells) | IC50 (KRAS WT) | IC50 (KRAS G12S) | IC50 (KRAS G12D) |
| --- | --- | --- | --- | --- | --- |
| CCN(c1nc(OC[C@@]23CCCN2C[C@H](F)C3)nc2c(F)c(-c3ccc(F)c4sc(N)c(C#N)c34)c(Cl)cc12)[C@@H]1CCN(C(=O)n2ccnc2C#N)[C@@H]1C [Compound 188, 1-((2R,3R)-3-((7-(2-amino-3-cyano-7-fluorobenzo[b]thiophen-4-yl)-6-chloro-8-fluoro-2-(((2R,7aS)-2-fluorotetrahydro-1H-pyrrolizin-7a(5H)-yl)methoxy)quinazolin-4-yl)(ethyl)amino)-2-methylpyrrolidine-1-carbonyl)-1H-imidazole-2-carbonitrile] | < 500 nM | ≤ 500 nM | < 500 nM | < 500 nM | < 500 nM |
| Cc1nc(C#N)cn1C(=O)N1CC2CCN(c3nc(OC[C@@]45CCCN4C[C@H](F)C5)nc4c(F)c(-c5ccc(F)c6sc(N)c(C#N)c56)c(Cl)cc34)C2C1 (stereo partly drawn) [Compound 192, 1-(1-(7-(2-amino-3-cyano-7-fluorobenzo[b]thiophen-4-yl)-6-chloro-8-fluoro-2-(((2R,7aS)-2-fluorotetrahydro-1H-pyrrolizin-7a(5H)-yl)methoxy)quinazolin-4-yl)octahydropyrrolo[3,4-b]pyrrole-5-carbonyl)-2-methyl-1H-imidazole-4-carbonitrile] | < 500 nM | ≤ 500 nM | < 500 nM | < 500 nM | < 500 nM |
| C[C@@H]1[C@H](N(C)c2nc(OC[C@@]34CCCN3C[C@H](F)C4)nc3c(F)c(-c4ccc(F)c5sc(N)c(C#N)c45)c(Cl)cc23)CCN1C(=O)n1ccnc1C(F)(F)F [Compound 194, 2-amino-4-(6-chloro-8-fluoro-2-(((2R,7aS)-2-fluorotetrahydro-1H-pyrrolizin-7a(5H)-yl)methoxy)-4-(methyl((2R,3R)-2-methyl-1-(2-(trifluoromethyl)-1H-imidazole-1-carbonyl)pyrrolidin-3-yl)amino)quinazolin-7-yl)-7-fluorobenzo[b]thiophene-3-carbonitrile] | < 500 nM | ≤ 500 nM | < 500 nM | < 500 nM | < 500 nM |
| CCN(c1nc(OC[C@@]23CCCN2C[C@H](F)C3)nc2c(F)c(-c3cccc4sc(N)c(C#N)c34)c(Cl)cc12)[C@@H]1CCN(C(=O)n2cc(C)nc2C)[C@@H]1C [Compound 195, 2-amino-4-(6-chloro-4-(((2R,3R)-1-(2,4-dimethyl-1H-imidazole-1-carbonyl)-2-methylpyrrolidin-3-yl)(ethyl)amino)-8-fluoro-2-(((2R,7aS)-2-fluorotetrahydro-1H-pyrrolizin-7a(5H)-yl)methoxy)quinazolin-7-yl)benzo[b]thiophene-3-carbonitrile] | < 500 nM | ≤ 500 nM | < 500 nM | < 500 nM | < 500 nM |
| CCN(c1nc(OC[C@@]23CCCN2C[C@H](F)C3)nc2c(F)c(-c3cc(N)c(F)c(C)c3C(F)(F)F)ncc12)[C@@H]1CCN(C(=O)n2cc(C)nc2C)[C@@H]1C [Compound 196, ((2R,3R)-3-((7-(5-amino-4-fluoro-3-methyl-2-(trifluoromethyl)phenyl)-8-fluoro-2-(((2R,7aS)-2-fluorotetrahydro-1H-pyrrolizin-7a(5H)-yl)methoxy)pyrido[4,3-d]pyrimidin-4-yl)(ethyl)amino)-2-methylpyrrolidin-1-yl)(2,4-dimethyl-1H-imidazol-1-yl)methanone] | < 500 nM | ≤ 500 nM | < 500 nM | < 500 nM | 500 to 1000 nM |
| CC[C@@H]1[C@H](N(C)c2nc(OC[C@@]34CCCN3C[C@H](F)C4)nc3c(F)c(-c4ccc(F)c5sc(N)c(C#N)c45)c(Cl)cc23)CCN1C(=O)n1ccnc1 [Compound 198, 2-amino-4-(6-chloro-4-(((2R,3R)-2-ethyl-1-(1H-imidazole-1-carbonyl)pyrrolidin-3-yl)(methyl)amino)-8-fluoro-2-(((2R,7aS)-2-fluorotetrahydro-1H-pyrrolizin-7a(5H)-yl)methoxy)quinazolin-7-yl)-7-fluorobenzo[b]thiophene-3-carbonitrile] | < 500 nM | ≤ 500 nM | < 500 nM | < 500 nM | < 500 nM |
| C[C@@H]1[C@H](N(C)c2nc(OC[C@@]34CCCN3C[C@H](F)C4)nc3c(F)c(-c4ccc(F)c5sc(N)c(C#N)c45)c(Cl)cc23)CCN1C(=O)n1cnc(C#N)c1 [Compound 199, 1-((2R,3R)-3-((7-(2-amino-3-cyano-7-fluorobenzo[b]thiophen-4-yl)-6-chloro-8-fluoro-2-(((2R,7aS)-2-fluorotetrahydro-1H-pyrrolizin-7a(5H)-yl)methoxy)quinazolin-4-yl)(methyl)amino)-2-methylpyrrolidine-1-carbonyl)-1H-imidazole-4-carbonitrile] | < 500 nM | ≤ 500 nM | < 500 nM | < 500 nM | < 500 nM |
| C[C@@H]1[C@H](N(C)c2nc(OC[C@@]34CCCN3C[C@H](F)C4)nc3c(F)c(-c4ccc(F)c5sc(N)c(C#N)c45)c(C(F)(F)F)cc23)CCN1C(=O)n1ccnc1 [Compound 200, 4-(4-(((2R,3R)-1-(1H-imidazole-1-carbonyl)-2-methylpyrrolidin-3-yl)(methyl)amino)-8-fluoro-2-(((2R,7aS)-2-fluorotetrahydro-1H-pyrrolizin-7a(5H)-yl)methoxy)-6-(trifluoromethyl)quinazolin-7-yl)-2-amino-7-fluorobenzo[b]thiophene-3-carbonitrile] | < 500 nM | ≤ 500 nM | < 500 nM | < 500 nM | < 500 nM |
| C[C@@H]1[C@H](N(C)c2nc(OC[C@@]34CCCN3C[C@H](F)C4)nc3c(F)c(-c4ccc(F)c5sc(N)c(C#N)c45)c(Cl)cc23)CCN1C(=O)n1ccnc1C1CC1 [Compound 201, 2-amino-4-(6-chloro-4-(((2R,3R)-1-(2-cyclopropyl-1H-imidazole-1-carbonyl)-2-methylpyrrolidin-3-yl)(methyl)amino)-8-fluoro-2-(((2R,7aS)-2-fluorotetrahydro-1H-pyrrolizin-7a(5H)-yl)methoxy)quinazolin-7-yl)-7-fluorobenzo[b]thiophene-3-carbonitrile] | < 500 nM | ≤ 500 nM | < 500 nM | < 500 nM | < 500 nM |
| Cc1c(C#N)ncn1C(=O)N1C[C@]2(CC[C@H](C)N(c3nc(OC[C@@]45CCCN4C[C@H](F)C5)nc4c(F)c(-c5ccc(F)c6sc(N)c(C#N)c56)c(Cl)cc34)C2)[C@H]1C1(C)CC1 [Compound 202, 1-((1R,4R,7S)-6-(7-(2-amino-3-cyano-7-fluorobenzo[b]thiophen-4-yl)-6-chloro-8-fluoro-2-(((2R,7aS)-2-fluorotetrahydro-1H-pyrrolizin-7a(5H)-yl)methoxy)quinazolin-4-yl)-7-methyl-1-(1-methylcyclopropyl)-2,6-diazaspiro[3.5]nonane-2-carbonyl)-5-methyl-1H-imidazole-4-carbonitrile] | < 500 nM | ≤ 500 nM | < 500 nM | < 500 nM | < 500 nM |
